Reference: US7781452B2, “Imidazopyridine compound” (Eisai R&D Management Co., Ltd., priority 2004, dated 2010)

Key:
[1] = system: Gastric Acid Secretion in Rats; test: Inhibitory effects on gastric acid secretion in pylorus-ligated, histamine-stimulated rats; assay type: in vivo, rat; settings: male SD rats, 10 mg/kg into the duodenum, histamine 20 mg/kg subcutaneously, eight hours after administration
Procedure: Seven-week-old male SD rats fasted from the day before experiments were used. The rats were subjected to celiotomy along the median line under ether anesthesia, and the pylorus was ligated. Test compounds were dissolved or suspended in 0.5% methyl-cellulose solution (solvent) and prepared the concentration of 5 mg/ml. […] Then the abdomen was sutured. Eight hours after the administration of solvent or test compound, rat was sacrificed and stomach was isolated for the measurement of the volume of gastric juice. After the volume of gastric juice was determined, the acid concentration was measured using 0.25 ml of gastric juice by titration against 0.04 mol/l NaOH solution to pH 7.0. The acid output was calculated as (volume of gastric juice)×(acid concentration). The inhibition rate (%) was calculated according to the formula shown below. The number of animals of each experimental group is four. Inhibition rate (%)=100×(A−B)/A • A: acid output in solvent administered group • B: acid output in test compound administered group

CYP1A1 = test: Cytochrome P450 (CYP) gene induction in human cryopreserved hepatocytes, CYP1A1 mRNA; assay type: in vitro ADME; settings: for CYP1A1 mRNA induction potency, % of the positive control (100%): 48-hr exposure
Procedure: (§1) Human cryopreserved hepatocytes purchased from In Vitro Technology were quickly thawed at 37° C. After ice-cold William's E (WE) medium supplemented with 10% FCS, penicillin (100 U/mL), streptomycin (100 μg/mL) and glutamine (2 mM) (WE medium) was gradually added to hepatocytes, the cells were centrifuged at 500 rpm for 5 min at 4° C. The supernatant was removed and the cells were resuspended in WE medium to obtain 5×10^5 cells/mL. The cells were plated into collagen-coated 48-well plates (1×10^5 cells/cm^2) and cultured at 37° C. and 5% CO2 for about 24 hr.
(§2) Medium was replaced with Hepato-STIM (trademark, BD Biosciences) supplemented with EGF, penicillin (100 U/mL), streptomycin (100 μg/mL) and glutamine (2 mM) (HS medium) and the cells were cultured for about 24 hr. At about 48 hr of culture after seeding, the cells were treated with the test compounds and β-naphtoflavone (β-NF, positive control for human CYP1A1 and CYP1A2, SIGMA) prepared by HS medium for about 48 hr. Medium was changed daily. The final concentration of β-NF was set to 10 μM. All compounds were dissolved in dimethylsulfoxide (DMSO, Wako), resulting in a final vehicle concentration of 0.1% (v/v). To the control cells, HS medium containing 0.1% DMSO was added.
(§3) After 48-hr exposure, cells were washed once using PBS, and total RNA was purified using Qiagen RNeasy Mini Kit (Qiagen) according to the manufacturer's instruction. Purified total RNA was then used as template for first strand cDNA synthesis. For reverse transcription (RT) reaction, Oligo dT was employed. The RT reaction was carried using TaqMan Reverse Transcription Reagents (Applied Biosystems) at 25° C. for 10 min followed by 60-min reaction at 48° C., and then the enzyme was inactivated at 95° C. for 5 min in Gene Amp PCR System 9700. The resulting cDNA was subjected to polymerase chain reaction (PCR) in ABI7700 Sequence Detection System (Applied Biosystems). For the mRNA analyses of CYP1A1 and GAPDH, SYBR Green PCR Core Reagents kit (Applied Biosystems) was used, and CYP1A2 mRNA was quantified using TaqMan PCR Core Reagents kit (Applied Biosystems).
(§4) The amount of mRNA of CYP1A1 or CYP1A2 was divided by that of GAPDH. Then, the ratio (fold) of the values obtained in test compounds (X) and positive control (P) against that in control was calculated. The induction potency of test compound (%) was obtained by following equation: Induction potency of test compound (%)=100×(X−1)/(P−1) <Results>

CYP1A2 = test: Cytochrome P450 (CYP) gene induction in human cryopreserved hepatocytes, CYP1A2 mRNA; assay type: in vitro ADME; settings: for CYP1A2 mRNA induction potency, % of the positive control (100%): 48-hr exposure
Procedure: as §1, §2, §3, §4

[2] = 10 μM, normalised to GAPDH, vs 0.1% DMSO control

For `COc1ccnc(C[S+]([O-])c2nc3cc(C)c(OCC(F)F)nc3[n-]2)c1C.[Na+]` (stereo not drawn) [Example 3, 5-(2,2-Difluoroethoxy)-2-(((4-methoxy-3-methyl-2-pyridinyl)methyl)sulfinyl)-6-methyl-3H-imidazo[4,5-b]pyridine Sodium salt], the “Inhibition rate(%) of acid output” value [1] was 85%.

With `COc1ccnc(C[S+]([O-])c2nc3cc(C)c(OCC(F)(F)F)nc3[n-]2)c1C.[Na+]` (stereo not drawn) [Example 2, 2-(((4-Methoxy-3-methyl-2-pyridinyl)methyl]sulfinyl)-6-methyl-5-(2,2,2-trifluoroethoxy)-3H-imidazo[4,5-b]pyridine Sodium salt] the “Inhibition rate(%) of acid output” value [1] was 86%.

In the case of `COc1ccnc(C[S+]([O-])c2nc3cc(C)c(OC)nc3[n-]2)c1C.[Na+]` (stereo not drawn) [Example 1, 5-Methoxy-2-(((4-methoxy-3-methyl-2-pyridinyl)methyl)sulfinyl)-6-methyl-3H-imidazo[4,5-b]pyridineSodium salt], the “Inhibition rate(%) of acid output” value [1] was 79%, the “CYP1A1 mRNA induction potency, % of the positive control (100%)” value (shortened to “CYP1A1 mRNA induction potency, %”) (CYP1A1; 0.3 μM) was 2.03% and the “CYP1A1 mRNA induction potency, %” value (CYP1A1; 1 μM) was 8.02%. The “CYP1A1 mRNA induction potency, %” value (CYP1A1; 3 μM) was 11.27%, the “CYP1A1 mRNA induction potency, %” value (CYP1A1; 10 μM) was 18.46% and the “CYP1A2 mRNA induction potency, % of the positive control (100%)” value (“CYP1A2 mRNA induction potency, %” below) (CYP1A2; 0.3 μM) was 8.36%. The “CYP1A2 mRNA induction potency, %” value (CYP1A2; 1 μM) was 12.16%, the “CYP1A2 mRNA induction potency, %” value (CYP1A2; 3 μM) was 11.78% and the “CYP1A2 mRNA induction potency, %” value (CYP1A2; 10 μM) was 29.18%.

For `O=c1cc(-c2ccccc2)oc2ccc3ccccc3c12` [βNF, β-naphtoflavone, reference compound], the “CYP1A1 mRNA induction potency, %” value (CYP1A1; 10 μM) was 100%, the “CYP1A1 mRNA fold induction as compared with control (figures in parentheses)” value (CYP1A1; [2]) was 79.97 fold and the “CYP1A2 mRNA induction potency, %” value (CYP1A2; 10 μM) was 100%. The “CYP1A2 mRNA fold induction as compared with control (figures in parentheses)” value (CYP1A2; [2]) was 14.16 fold.
